Patent US10000535B2, “Template-fixed peptidomimetics” (POLYPHOR LTD., priority 2007, dated 2018)
Non-standard residues stand in square brackets, D forms with d. Residues, ends and D or L forms follow the SMILES beside them. Aze = O=C(O)[C@@H]1CCN1

Tests used:
Test in all cases: Selectivity calcium flux assay, chemokine receptor panel
Assay type in all cases: cell-based
Details in all cases: at 10 μM
CXCR4 chemokine receptor = CXCR4 chemokine receptor (Homo sapiens, UniProt P61073)
Protocol: (§1) Selectivity was measured using the calcium flux assay on a panel of human chemokine receptor bearing cell lines (CCR1, CCR2, CCR3, CCR4, CCR5, CCR6, CCR7, CCR8, CCR9, CCR10, CXCR1, CXCR2, CXCR2, CXCR4, CXCR6 and CXCCR1) using the same method as above

CCR6 = molecular target: T1, CCR6 (Homo sapiens, UniProt P51684)
T1 sequence (P51684 1-374): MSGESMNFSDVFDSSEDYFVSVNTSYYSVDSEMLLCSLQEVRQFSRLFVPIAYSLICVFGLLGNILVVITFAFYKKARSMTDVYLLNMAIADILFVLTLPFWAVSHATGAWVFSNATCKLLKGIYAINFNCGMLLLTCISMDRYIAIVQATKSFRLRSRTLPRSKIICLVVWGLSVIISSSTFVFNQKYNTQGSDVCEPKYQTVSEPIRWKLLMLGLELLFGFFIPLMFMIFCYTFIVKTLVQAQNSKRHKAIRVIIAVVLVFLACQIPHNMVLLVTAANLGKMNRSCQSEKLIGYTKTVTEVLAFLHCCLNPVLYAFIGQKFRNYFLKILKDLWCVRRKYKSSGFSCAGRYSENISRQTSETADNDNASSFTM
Protocol: as §1

CCR2 = CCR2 (Homo sapiens, UniProt P41597)
CCR2, sequence (P41597 whole entry): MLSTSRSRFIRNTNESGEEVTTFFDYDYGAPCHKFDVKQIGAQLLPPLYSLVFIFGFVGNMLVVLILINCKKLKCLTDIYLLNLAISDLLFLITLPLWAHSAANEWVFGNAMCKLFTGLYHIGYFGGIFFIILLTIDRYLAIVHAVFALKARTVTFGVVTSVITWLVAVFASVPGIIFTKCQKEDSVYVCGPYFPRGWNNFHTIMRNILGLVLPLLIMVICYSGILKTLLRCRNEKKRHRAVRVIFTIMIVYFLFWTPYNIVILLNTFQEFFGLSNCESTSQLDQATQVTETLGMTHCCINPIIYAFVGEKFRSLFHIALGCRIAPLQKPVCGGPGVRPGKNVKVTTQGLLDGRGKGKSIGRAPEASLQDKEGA
Protocol: as §1

CXCR1 = molecular target: T2, CXCR1 (Homo sapiens, UniProt P25024)
T2 sequence (P25024 1-350): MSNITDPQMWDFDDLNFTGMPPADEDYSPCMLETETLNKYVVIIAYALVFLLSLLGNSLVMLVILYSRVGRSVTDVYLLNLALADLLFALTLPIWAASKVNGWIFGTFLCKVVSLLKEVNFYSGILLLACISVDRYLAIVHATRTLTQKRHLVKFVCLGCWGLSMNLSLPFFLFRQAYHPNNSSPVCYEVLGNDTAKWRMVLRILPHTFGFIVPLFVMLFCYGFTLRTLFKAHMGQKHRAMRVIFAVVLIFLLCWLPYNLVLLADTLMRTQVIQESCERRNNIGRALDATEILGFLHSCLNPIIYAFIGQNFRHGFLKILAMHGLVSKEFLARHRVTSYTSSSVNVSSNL
Protocol: as §1

CCR5 = CCR5 (Homo sapiens, UniProt P51681)
CCR5, sequence (P51681 whole entry): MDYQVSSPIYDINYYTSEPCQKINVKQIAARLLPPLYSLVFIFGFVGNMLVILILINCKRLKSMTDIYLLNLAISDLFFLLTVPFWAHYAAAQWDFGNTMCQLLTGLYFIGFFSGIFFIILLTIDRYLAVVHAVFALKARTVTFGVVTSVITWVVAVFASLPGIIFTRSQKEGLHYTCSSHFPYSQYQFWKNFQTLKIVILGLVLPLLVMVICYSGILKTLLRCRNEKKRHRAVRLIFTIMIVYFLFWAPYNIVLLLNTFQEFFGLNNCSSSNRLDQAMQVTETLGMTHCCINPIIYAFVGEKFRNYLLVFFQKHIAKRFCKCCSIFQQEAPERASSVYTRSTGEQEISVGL
Protocol: as §1

CCR1 = molecular target: T3, CCR1 (Homo sapiens, UniProt P32246)
T3 sequence (P32246 1-355): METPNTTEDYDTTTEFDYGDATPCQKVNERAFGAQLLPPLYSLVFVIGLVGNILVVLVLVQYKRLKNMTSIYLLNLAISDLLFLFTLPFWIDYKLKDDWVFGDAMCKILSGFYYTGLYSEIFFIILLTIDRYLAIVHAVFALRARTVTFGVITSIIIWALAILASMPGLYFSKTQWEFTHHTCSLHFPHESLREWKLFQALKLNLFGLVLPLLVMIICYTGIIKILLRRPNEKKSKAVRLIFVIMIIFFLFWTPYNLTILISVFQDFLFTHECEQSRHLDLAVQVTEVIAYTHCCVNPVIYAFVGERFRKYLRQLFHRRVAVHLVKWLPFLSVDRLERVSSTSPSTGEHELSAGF
Protocol: as §1

CXCR2 = molecular target: T4, CXCR2 (Homo sapiens, UniProt P25025)
T4 sequence (P25025 1-360): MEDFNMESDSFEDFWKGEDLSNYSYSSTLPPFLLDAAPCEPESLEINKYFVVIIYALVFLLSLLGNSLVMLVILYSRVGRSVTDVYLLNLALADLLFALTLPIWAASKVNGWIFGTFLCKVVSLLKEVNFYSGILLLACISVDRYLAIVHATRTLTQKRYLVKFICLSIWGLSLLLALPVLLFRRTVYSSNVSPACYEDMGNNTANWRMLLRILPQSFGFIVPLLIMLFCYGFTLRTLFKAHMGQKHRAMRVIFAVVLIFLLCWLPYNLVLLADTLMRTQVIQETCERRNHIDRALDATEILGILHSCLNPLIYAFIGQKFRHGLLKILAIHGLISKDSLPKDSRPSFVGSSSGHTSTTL
Protocol: as §1

CXCCR1 = molecular target: T5, CXCCR1 (Homo sapiens, UniProt P49238)
T5 sequence (P49238 1-355): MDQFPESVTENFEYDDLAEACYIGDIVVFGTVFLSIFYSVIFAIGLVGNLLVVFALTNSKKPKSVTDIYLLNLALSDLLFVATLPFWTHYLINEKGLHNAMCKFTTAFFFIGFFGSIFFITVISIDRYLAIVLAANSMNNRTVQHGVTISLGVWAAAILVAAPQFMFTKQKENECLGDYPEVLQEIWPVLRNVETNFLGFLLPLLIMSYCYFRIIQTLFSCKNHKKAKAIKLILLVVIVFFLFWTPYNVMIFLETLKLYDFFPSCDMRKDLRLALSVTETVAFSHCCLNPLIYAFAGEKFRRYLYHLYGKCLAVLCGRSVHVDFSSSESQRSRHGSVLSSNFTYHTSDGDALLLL
Protocol: as §1

CCR3 = molecular target: T6, CCR3 (Homo sapiens, UniProt P51677)
T6 sequence (P51677 1-355): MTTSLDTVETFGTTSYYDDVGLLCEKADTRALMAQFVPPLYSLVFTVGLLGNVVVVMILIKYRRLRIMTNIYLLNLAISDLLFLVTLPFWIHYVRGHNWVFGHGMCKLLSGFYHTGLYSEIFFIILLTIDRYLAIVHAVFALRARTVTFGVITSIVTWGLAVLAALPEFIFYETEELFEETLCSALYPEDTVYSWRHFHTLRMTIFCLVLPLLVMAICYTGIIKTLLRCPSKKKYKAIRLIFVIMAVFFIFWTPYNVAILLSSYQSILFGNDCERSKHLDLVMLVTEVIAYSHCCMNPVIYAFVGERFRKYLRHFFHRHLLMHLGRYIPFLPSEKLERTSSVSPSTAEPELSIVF
Protocol: as §1

CCR8 = CCR8 (Homo sapiens, UniProt P51685)
CCR8, sequence (P51685 whole entry): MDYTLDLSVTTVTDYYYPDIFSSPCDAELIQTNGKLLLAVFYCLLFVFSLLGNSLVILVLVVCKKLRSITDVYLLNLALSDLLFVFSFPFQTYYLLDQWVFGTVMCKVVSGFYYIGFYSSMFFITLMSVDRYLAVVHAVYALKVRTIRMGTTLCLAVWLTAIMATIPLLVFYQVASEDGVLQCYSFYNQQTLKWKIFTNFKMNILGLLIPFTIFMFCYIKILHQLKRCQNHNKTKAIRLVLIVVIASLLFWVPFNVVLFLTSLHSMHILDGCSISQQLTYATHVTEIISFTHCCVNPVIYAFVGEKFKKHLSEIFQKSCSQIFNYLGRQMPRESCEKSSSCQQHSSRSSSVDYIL
Protocol: as §1

CXCR4 chemokine receptor, sequence (P61073 whole entry): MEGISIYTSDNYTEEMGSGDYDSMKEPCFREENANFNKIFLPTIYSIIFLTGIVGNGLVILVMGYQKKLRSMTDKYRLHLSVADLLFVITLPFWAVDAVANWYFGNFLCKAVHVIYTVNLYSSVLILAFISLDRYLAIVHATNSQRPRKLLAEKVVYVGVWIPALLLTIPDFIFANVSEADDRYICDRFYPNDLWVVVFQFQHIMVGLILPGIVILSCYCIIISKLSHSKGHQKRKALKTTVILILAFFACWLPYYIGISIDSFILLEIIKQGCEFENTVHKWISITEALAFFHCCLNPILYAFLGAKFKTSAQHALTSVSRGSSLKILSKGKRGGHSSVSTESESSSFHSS

Row | selectivity against CXCR4 chemokine receptor (CXCR4 chemokine receptor) | selectivity against CCR6 (CCR6) | selectivity against CCR2 (CCR2) | selectivity against CXCR1 (CXCR1) | selectivity against CCR5 (CCR5) | selectivity against CCR1 (CCR1) | selectivity against CXCR2 (CXCR2) | selectivity against CXCCR1 (CXCCR1) | selectivity against CCR3 (CCR3) | selectivity against CCR8 (CCR8) | SMILES
1 | highly selective | highly selective | highly selective | highly selective | highly selective | highly selective | highly selective | highly selective | highly selective | highly selective | N=C(N)NCCC[C@@H]1NC(=O)[C@H](Cc2c[nH]c3ccccc23)NC(=O)[C@H](Cc2ccc(O)cc2)NC(=O)[C@@H]2CCN2C(=O)[C@H]2CCCN2C(=O)CNC1=O [Example 15] (cyclo(YWRG[dP][Aze]))
2 | highly selective | highly selective | highly selective | highly selective | highly selective | highly selective | highly selective | highly selective | highly selective | highly selective | C[C@@H]1NC(=O)[C@H](CCCNC(=N)N)NC(=O)[C@H](Cc2c[nH]c3ccccc23)NC(=O)[C@H](Cc2ccc(O)cc2)NC(=O)[C@@H]2CCN2C(=O)[C@H]2CCCN2C1=O [Example 16] (cyclo(YWRA[dP][Aze]))
